Reference: PubChem BioAssay AID1918993 (Molecular Pharmacology Branch, DTP, NCI, 2023)

Tested on: 233499-124-R-J3-PDC complex spheroid growth
Assay: Anticancer human tumor 233499-124-R-J3-PDC patient-derived colon adenocarcinoma cell line growth inhibition [AhR]
Conditions: for IC50: curve of first compound; for viability, T/C: stronger effect = lower value
Excerpt: Multicellular complex tumor spheroid response to aryl hydrocarbon receptor antagonists in combination with a variety of drugs and investigational agents in selected tumor cell lines
The current study was undertaken to assess response to aryl hydrocarbon receptor antagonists in combination with standard-of-care drugs and investigational agents in solid tumor complex spheroid models. Complex spheroids include a stromal component modeled by human endothelial cells (HUVEC) and fibroblasts modeled by human mesenchymal stem cells (MSCs). The concentration ranges selected for each drug and investigational agent were based upon clinically achievable concentrations if the clinical Cmax of the agent was known.
Compounds. The drugs and investigational agents: BAY 2416964 (NSC825713), GNF351 (NSC835774), CH-223191 (NSC835775), CPI-455 (NSC825282), aza-TdCyd (NSC777586), decitabine (NSC127716), belinostat (NSC758774), entinostat (NSC756642), pevonedistat (NSC761192), tazemetostat (NSC777109), talazoparib (NSC765396), olaparib (NSC753686), selinexor (NSC780203), nedisertib (M3814, NSC802822), bortezomib (NSC756655), venetoclax (NSC766270), doxorubicin (NSC123127), elimusertib (BAY189344, NSC800525), ceralasertib (AZD6738, NSC777638), TAK-243 (NSC785004), alisertib (NSC759677), etoposide (NSC141540), topotecan (NSC609699), eribulin (NSC707389), gemcitabine (NSC613327), carboplatin (NSC241240), cisplatin (NSC119875), and SN-38 (NSC673596) were obtained from the National Cancer Institute (NCI) Developmental Therapeutics Program Chemical Repository (32). The FDA-approved anticancer drug set is available from the Developmental Therapeutics Program at https://dtp.cancer.gov/organization/dscb/obtaining/available plates.htm. […] The stock solutions were prepared in dimethyl sulfoxide (DMSO, Sigma-Aldrich, St. Louis, MO, cat. D2650), except for the platinum compounds which were prepared in saline (Quality Biological, Gaithersburg, MD, cat. 114-055-101), at 800-fold the tested concentration and stored at -70 degrees C prior to their use. All drugs and investigational agents were tested over a range starting from a high concentration at or near the clinical Cmax and decreasing in half-log increments. If the clinical Cmax for an agent had not been determined, the highest concentration tested was 10 microM (Table 1).
Cell Culture. All cells were maintained in an incubator at 37 degrees C and 5% CO2 with 95% humidity. The PDC lines were cultured according to standard operating procedures established by the NCI PDMR (https://pdmr.cancer.gov). Briefly, all PDCs were thawed and cultured in Matrigel-coated flasks prepared with a working solution of 1X Ham's F-12 nutrient mix, without supplementation (Invitrogen, Waltham, MA, cat. 11765054), 100 U/mL penicillin-streptomycin (Invitrogen, cat. 15140122), and 2.5% Matrigel (Corning Inc., Corning, NY, cat. 354248) for the first three passages. All PDCs were cultured in complete DMEM/F-12 media containing advanced DMEM/F-12 (Invitrogen, cat. 12634028), 4.9% defined fetal bovine serum, heat inactivated (HyClone Laboratories Inc., Logan, UT, cat. SH30070.03HI), 389 ng/mL hydrocortisone (Sigma-Aldrich, cat. H4001), 9.7 ng/mL human EGF recombinant protein (Invitrogen, cat. PHG0313), 23.4 microg/mL adenine (Sigma-Aldrich, cat. A2786), 97.3 U/mL penicillin-streptomycin (Invitrogen, cat. 15140122), 1.9 mM L-glutamine (Invitrogen, cat. 25030081), and 9.7 microM Y-27632 dihydrochloride (Tocris Bioscience, Bristol, United Kingdom, cat. 1254). The PDCs were cultured in complete DMEM/F12 media without 10 microM Y-27632 dihydrochloride for at least two passages prior to the screen. The established cell lines NCI-H1341 and […] were cultured in DMEM/F-12, HEPES (Invitrogen, cat. 11330032), 5% defined fetal bovine serum (HyClone Laboratories Inc., cat. SH30070.03), ITS premix universal culture supplement [insulin (5 microg/mL), transferrin (5 microg/mL), and selenious acid (5 ng/mL)] […]
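Note: spheroids exposed to agents for seven days before reading.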

CC(C)CC(NC(=O)C(Cc1ccccc1)NC(=O)c1cnccn1)B(O)O (stereo not given) + CC(CO)NC(=O)c1cc(-c2ccc(Cl)cc2)nn(-c2cnn(C)c2)c1=O
IC50 (second compound 0.1 µM): 8.47 nM | IC50 (second compound 0.316 µM): 8.01 nM | IC50 (second compound 1 µM): 6.87 nM | IC50 (second compound 3.16 µM): 6.12 nM | IC50 (second compound 10 µM): 4.96 nM | viability, T/C (second compound 0.1 µM, first compound 0.000949 µM): 92.4% | viability, T/C (second compound 0.1 µM, first compound 0.003 µM): 102% | viability, T/C (second compound 0.1 µM, first compound 0.00949 µM): 44.9% | viability, T/C (second compound 0.1 µM, first compound 0.03 µM): 0.09% | viability, T/C (second compound 0.1 µM, first compound 0.0949 µM): 0.09% | viability, T/C (second compound 0.1 µM, first compound 0.3 µM): 0.2% | viability, T/C (second compound 0.316 µM, first compound 0.000949 µM): 92.1% | viability, T/C (second compound 0.316 µM, first compound 0.003 µM): 93.2% | viability, T/C (second compound 0.316 µM, first compound 0.00949 µM): 42.6% | viability, T/C (second compound 0.316 µM, first compound 0.03 µM): 0.13% | viability, T/C (second compound 0.316 µM, first compound 0.0949 µM): 0.04% | viability, T/C (second compound 0.316 µM, first compound 0.3 µM): 0.12% | viability, T/C (second compound 1 µM, first compound 0.000949 µM): 102% | viability, T/C (second compound 1 µM, first compound 0.003 µM): 100% | viability, T/C (second compound 1 µM, first compound 0.00949 µM): 30.6% | viability, T/C (second compound 1 µM, first compound 0.03 µM): 0.08% | viability, T/C (second compound 1 µM, first compound 0.0949 µM): 0.05% | viability, T/C (second compound 1 µM, first compound 0.3 µM): 0.12% | viability, T/C (second compound 3.16 µM, first compound 0.000949 µM): 84.5% | viability, T/C (second compound 3.16 µM, first compound 0.003 µM): 88.8% | viability, T/C (second compound 3.16 µM, first compound 0.00949 µM): 27.5% | viability, T/C (second compound 3.16 µM, first compound 0.03 µM): 0.1% | viability, T/C (second compound 3.16 µM, first compound 0.0949 µM): 0.13% | viability, T/C (second compound 3.16 µM, first compound 0.3 µM): 0.12% | viability, T/C (second compound 10 µM, first compound 0.000949 µM): 66.5% | viability, T/C (second compound 10 µM, first compound 0.003 µM): 84.2% | viability, T/C (second compound 10 µM, first compound 0.00949 µM): 17.2% | viability, T/C (second compound 10 µM, first compound 0.03 µM): 0.18% | viability, T/C (second compound 10 µM, first compound 0.0949 µM): 0.12% | viability, T/C (second compound 10 µM, first compound 0.3 µM): 0.18%

Nc1ccccc1NC(=O)c1ccc(CNC(=O)OCc2cccnc2)cc1 + CC(CO)NC(=O)c1cc(-c2ccc(Cl)cc2)nn(-c2cnn(C)c2)c1=O
IC50 (second compound 0.1 µM): 2280 nM | IC50 (second compound 0.316 µM): 2240 nM | IC50 (second compound 1 µM): 3930 nM | IC50 (second compound 3.16 µM): 1940 nM | IC50 (second compound 10 µM): 1320 nM | viability, T/C (second compound 0.1 µM, first compound 0.0316 µM): 97.6% | viability, T/C (second compound 0.1 µM, first compound 0.1 µM): 92.2% | viability, T/C (second compound 0.1 µM, first compound 0.316 µM): 87.1% | viability, T/C (second compound 0.1 µM, first compound 1 µM): 91% | viability, T/C (second compound 0.1 µM, first compound 3.16 µM): 33.8% | viability, T/C (second compound 0.1 µM, first compound 10 µM): 3.08% | viability, T/C (second compound 0.316 µM, first compound 0.0316 µM): 102% | viability, T/C (second compound 0.316 µM, first compound 0.1 µM): 91.4% | viability, T/C (second compound 0.316 µM, first compound 0.316 µM): 99% | viability, T/C (second compound 0.316 µM, first compound 1 µM): 78.2% | viability, T/C (second compound 0.316 µM, first compound 3.16 µM): 37.9% | viability, T/C (second compound 0.316 µM, first compound 10 µM): 5% | viability, T/C (second compound 1 µM, first compound 0.0316 µM): 88.8% | viability, T/C (second compound 1 µM, first compound 0.1 µM): 96.7% | viability, T/C (second compound 1 µM, first compound 0.316 µM): 105% | viability, T/C (second compound 1 µM, first compound 1 µM): 96% | viability, T/C (second compound 1 µM, first compound 3.16 µM): 60.7% | viability, T/C (second compound 1 µM, first compound 10 µM): 3.71% | viability, T/C (second compound 3.16 µM, first compound 0.0316 µM): 91.9% | viability, T/C (second compound 3.16 µM, first compound 0.1 µM): 105% | viability, T/C (second compound 3.16 µM, first compound 0.316 µM): 101% | viability, T/C (second compound 3.16 µM, first compound 1 µM): 90.8% | viability, T/C (second compound 3.16 µM, first compound 3.16 µM): 19.7% | viability, T/C (second compound 3.16 µM, first compound 10 µM): 1.49% | viability, T/C (second compound 10 µM, first compound 0.0316 µM): 97.1% | viability, T/C (second compound 10 µM, first compound 0.1 µM): 82.9% | viability, T/C (second compound 10 µM, first compound 0.316 µM): 87.9% | viability, T/C (second compound 10 µM, first compound 1 µM): 62% | viability, T/C (second compound 10 µM, first compound 3.16 µM): 11.8% | viability, T/C (second compound 10 µM, first compound 10 µM): 0.6%
